# From paper PMC10712727, “Safety, Tolerability, and Pharmacokinetics of Senaparib, a Novel PARP1/2 Inhibitor, in Chinese Patients With Advanced Solid Tumors: A Phase I Trial” (The Oncologist, 2023)
# Tested on: patients with advanced solid tumors
# Experiment: Safety: treatment-emergent and senaparib-related adverse events graded per NCI CTCAE v4.03
# Assay type: in vivo
# Protocol: This phase I, open-label, multicenter, dose-escalation, and dose-expansion study was conducted at three national clinical institutions in China. […] At baseline, all patients enrolled in the dose-escalation phase had to have at least one evaluable lesion, and those in the dose-expansion period had to have at least one measurable lesion, according to Response Evaluation Criteria in Solid Tumors version 1.1 (RECIST v1.1).[16] Entry to the dose-expansion cohort required the presence of a BRCA mutation, with the exception of patients with ovarian carcinoma, fallopian tube carcinoma, and primary peritoneal carcinoma. Full study eligibility criteria are provided in Supplementary Table S1.
# Dose escalation was conducted using a modified Fibonacci 3 + 3 method (Supplementary Fig. S1).[17] Patients were administered oral senaparib from a planned starting dose of 2 mg once daily (QD), with preliminary dose escalation to 120 mg via nine dose groups, in order of their entry into the study. At a given dose level, each patient received a single dose of senaparib followed by a 7-day washout period. They then entered a continuous dosing period to confirm the safety and PK profile, in which they received senaparib QD from day 1 to day 21 of each 3-week cycle. Progression to the next higher dose required approval from the Data Safety Monitoring Committee (DSMC) upon review of the safety and PK data of the previous dose. A 50-mg twice-daily (BID) dosing group was added (planned enrollment, n = 6 patients) based on a DSMC review of the safety, PK, and efficacy analysis of the completed QD dose groups in the phase I clinical trial of senaparib dose escalation in Australia (NCT03507543), which commenced prior to the start of this trial.
# The dose-expansion period included 3 populations: dose groups in which at least one patient achieved complete response (CR) or partial response (PR) per RECIST v1.1[16] and 1 dose group higher (evaluated for safety), as well as the dose group at the maximum tolerated dose (MTD)/recommended phase II dose (RP2D). Each of these groups included those patients in the respective dose-escalation group plus a planned additional 10 patients (approximately 20 patients in the MTD/RP2D group) with BRCA^mut+ solid tumors (ovarian, breast, or prostate cancer were preferred, and ovarian cancer could be BRCA wild type). Patients received senaparib monotherapy orally QD or BID (50-mg dose only) over each 3-week cycle until disease progression or unacceptable toxicity.
# DLTs were predefined toxicities (Supplementary Table S2) recorded over the 7 days following the single-dose administration of senaparib and during the first treatment cycle (day 1-day 21) for each dose group in the dose-escalation period only. The MTD was defined as the maximum dose at which ≤1/6 patients experienced a DLT. Senaparib PK parameters were derived from blood samples collected from patients after the single administration, and at regular intervals during the first cycle of the dose-escalation and dose-expansion periods. Plasma concentrations of senaparib were determined using high-performance liquid chromatography-tandem mass spectrometry. Tumor response was assessed every 6 weeks per RECIST v1.1,[16] recording objective response rate (ORR), disease control rate (DCR), duration of response (DOR), and progression-free survival (PFS) by dose level for all patients and for those harboring BRCA^mut+ tumors.
smiles,measurement,setting,value
O=C(c1cc(Cn2c(=O)[nH]c(=O)c3c(F)cccc32)ccc1F)N1CCN(c2ncccn2)CC1 [Senaparib],"Pain in extremity, Gr≥3","TEAE, 120 mg QD n = 4",0 n (%)
same,"Platelet count decreased, All","TEAE, 120 mg QD n = 4",1 (25.0) n (%)
same,"Platelet count decreased, Gr≥3","TEAE, 120 mg QD n = 4",0 n (%)
same,"Protein in urine, All","TEAE, 120 mg QD n = 4",1 (25.0) n (%)
same,"Protein in urine, Gr≥3","TEAE, 120 mg QD n = 4",0 n (%)
same,"Vomiting, All","TEAE, 120 mg QD n = 4",1 (25.0) n (%)
same,"Vomiting, Gr≥3","TEAE, 120 mg QD n = 4",0 n (%)
same,"WBC decreased, All","TEAE, 120 mg QD n = 4",4 (100) n (%)
same,"WBC decreased, Gr≥3","TEAE, 120 mg QD n = 4",0 n (%)
same,"ALT increased, All","TEAE, Total N = 57",10 (17.5) n (%)
same,"ALT increased, Gr≥3","TEAE, Total N = 57",1 (1.8) n (%)
same,"AST increased, All","TEAE, Total N = 57",10 (17.5) n (%)
same,"AST increased, Gr≥3","TEAE, Total N = 57",1 (1.8) n (%)
same,"Abdominal distension, All","TEAE, Total N = 57",7 (12.3) n (%)
same,"Abdominal distension, Gr≥3","TEAE, Total N = 57",0 n (%)
same,"Anemia (incl. hemoglobin decreased), Gr≥3","TEAE, Total N = 57",12 (21.1) n (%)
same,"Appetite decreased, All","TEAE, Total N = 57",14 (24.6) n (%)
same,"Appetite decreased, Gr≥3","TEAE, Total N = 57",0 n (%)
same,"Asthenia, All","TEAE, Total N = 57",16 (28.1) n (%)
same,"Asthenia, Gr≥3","TEAE, Total N = 57",0 n (%)
same,"Blood bilirubin increased, All","TEAE, Total N = 57",8 (14.0) n (%)
same,"Blood bilirubin increased, Gr≥3","TEAE, Total N = 57",1 (1.8) n (%)
same,"Blood creatinine increased, All","TEAE, Total N = 57",8 (14.0) n (%)
same,"Blood creatinine increased, Gr≥3","TEAE, Total N = 57",0 n (%)
same,"Hypokalemia, All","TEAE, Total N = 57",6 (10.5) n (%)
same,"Hypokalemia, Gr≥3","TEAE, Total N = 57",0 n (%)
same,"Hyponatremia, All","TEAE, Total N = 57",7 (12.3) n (%)
same,"Hyponatremia, Gr≥3","TEAE, Total N = 57",1 (1.8) n (%)
same,"Nausea, All","TEAE, Total N = 57",14 (24.6) n (%)
same,"Nausea, Gr≥3","TEAE, Total N = 57",0 n (%)
same,"Neutrophil count decreased, All","TEAE, Total N = 57",12 (21.1) n (%)
same,"Neutrophil count decreased, Gr≥3","TEAE, Total N = 57",3 (5.3) n (%)
same,"Pain in extremity, All","TEAE, Total N = 57",7 (12.3) n (%)
same,"Pain in extremity, Gr≥3","TEAE, Total N = 57",2 (3.5) n (%)
same,"Platelet count decreased, All","TEAE, Total N = 57",17 (29.8) n (%)
same,"Platelet count decreased, Gr≥3","TEAE, Total N = 57",3 (5.3) n (%)
same,"Protein in urine, All","TEAE, Total N = 57",6 (10.5) n (%)
same,"Protein in urine, Gr≥3","TEAE, Total N = 57",0 n (%)
same,"Vomiting, All","TEAE, Total N = 57",12 (21.1) n (%)
same,"Vomiting, Gr≥3","TEAE, Total N = 57",2 (3.5) n (%)
same,"WBC decreased, All","TEAE, Total N = 57",25 (43.9) n (%)
same,"WBC decreased, Gr≥3","TEAE, Total N = 57",2 (3.5) n (%)
same,"ALT increased TRAE, All",Total N = 57,10 (17.5) n (%)
same,"ALT increased TRAE, Gr≥3",Total N = 57,1 (1.8) n (%)
same,"AST increased TRAE, All",Total N = 57,10 (17.5) n (%)
same,"AST increased TRAE, Gr≥3",Total N = 57,1 (1.8) n (%)
same,"Anemia TRAE, Gr≥3",Total N = 57,12 (21.1) n (%)
same,"Any TEAE, All",Total N = 57,57 (100) n (%)
same,"Any TEAE, Gr≥3",Total N = 57,27 (47.4) n (%)
same,"Any TEAE, events",Total N = 57,491 n ev
same,"Any TEAE, patients",Total N = 57,57 (100) n (%)
same,"Any TRAE, All",Total N = 57,55 (96.5) n (%)
same,"Any TRAE, Gr≥3",Total N = 57,19 (33.3) n (%)
same,"Appetite decreased TRAE, All",Total N = 57,13 (22.8) n (%)
same,"Appetite decreased TRAE, Gr≥3",Total N = 57,0 n (%)
same,"Asthenia TRAE, All",Total N = 57,15 (26.3) n (%)
same,"Asthenia TRAE, Gr≥3",Total N = 57,0 n (%)
same,"Blood bilirubin increased TRAE, All",Total N = 57,8 (14.0) n (%)
same,"Blood bilirubin increased TRAE, Gr≥3",Total N = 57,1 (1.8) n (%)
same,"Blood creatinine increased TRAE, All",Total N = 57,8 (14.0) n (%)
same,"Blood creatinine increased TRAE, Gr≥3",Total N = 57,0 n (%)
same,"Hypokalemia TRAE, All",Total N = 57,6 (10.5) n (%)
same,"Hypokalemia TRAE, Gr≥3",Total N = 57,0 n (%)
same,"Nausea TRAE, All",Total N = 57,14 (24.6) n (%)
same,"Nausea TRAE, Gr≥3",Total N = 57,0 n (%)
same,"Neutrophil count decreased TRAE, All",Total N = 57,12 (21.1) n (%)
same,"Neutrophil count decreased TRAE, Gr≥3",Total N = 57,3 (5.3) n (%)
same,"Platelet count decreased TRAE, All",Total N = 57,16 (28.1) n (%)
same,"Platelet count decreased TRAE, Gr≥3",Total N = 57,3 (5.3) n (%)
same,"SAEs, events",Total N = 57,12 n ev
same,"SAEs, patients",Total N = 57,12 (21.1) n (%)
same,"TEAE Grade ≥3, events",Total N = 57,41 n ev
same,"TEAE Grade ≥3, patients",Total N = 57,27 (47.4) n (%)
same,"TEAEs leading to death, events",Total N = 57,2 n ev
same,"TEAEs leading to death, patients",Total N = 57,2 (3.5) n (%)
same,"TEAEs leading to dose discontinuation, events",Total N = 57,10 n ev
same,"TEAEs leading to dose discontinuation, patients",Total N = 57,6 (10.5) n (%)
same,"TEAEs leading to dose interruption, events",Total N = 57,23 n ev
same,"TEAEs leading to dose interruption, patients",Total N = 57,15 (26.3) n (%)
same,"TEAEs leading to dose reduction, events",Total N = 57,10 n ev
same,"TEAEs leading to dose reduction, patients",Total N = 57,8 (14.0) n (%)
same,"TRAEs Grade ≥3, events",Total N = 57,29 n ev
same,"TRAEs Grade ≥3, patients",Total N = 57,19 (33.3) n (%)
same,"TRAEs, events",Total N = 57,403 n ev
same,"TRAEs, patients",Total N = 57,55 (96.5) n (%)
same,"Vomiting TRAE, All",Total N = 57,10 (17.5) n (%)
same,"Vomiting TRAE, Gr≥3",Total N = 57,1 (1.8) n (%)
same,"WBC decreased TRAE, All",Total N = 57,25 (43.9) n (%)
same,"WBC decreased TRAE, Gr≥3",Total N = 57,2 (3.5) n (%)
same,"All other grade ≥3 TEAEs, incidence of each",all patients N = 57,≤ 3.5%
same,"Anemia causing study drug discontinuation, patients",all patients N = 57,5.3%
same,"Grade ≥3 TEAE: anemia, incidence",all patients N = 57,21.1%
same,"Grade ≥3 TEAE: neutrophil count decreased, incidence",all patients N = 57,5.3%
same,"Grade ≥3 TEAE: platelet count decreased, incidence",all patients N = 57,5.3%
same,"Grade ≥3 TEAEs, incidence",all patients N = 57,47.4%
same,"Grade ≥3 TRAE: anemia, incidence",all patients N = 57,21.1%
same,Overall incidence of grade ≥3 TRAEs,all patients N = 57,33.3%
same,Patients with senaparib-related adverse events (TRAEs),all patients N = 57,96.5%
same,"Serious adverse events considered related to senaparib, patients",all patients N = 57,12.3%
same,"Serious adverse events, patients",all patients N = 57,21.1%
same,"TEAEs causing dose interruption, patients",all patients N = 57,26.3%
same,"TEAEs causing dose reduction, patients",all patients N = 57,14.0%
same,"TEAEs causing study drug discontinuation, patients",all patients N = 57,10.5%
same,"TEAEs, number of events",all patients N = 57,491 events
same,"Senaparib-related adverse event (TRAE): anemia, incidence","all patients N = 57, any grade",80.9%
same,"TEAE: anemia, incidence","all patients N = 57, any grade",80.9%
same,"TEAE: asthenia, incidence","all patients N = 57, any grade",28.1%
same,"TEAE: platelet count decreased, incidence","all patients N = 57, any grade",29.8%
same,"TEAE: white blood cell count (WBC) decreased, incidence","all patients N = 57, any grade",43.9%
same,"TRAE: asthenia, incidence","all patients N = 57, any grade",26.3%
same,"TRAE: platelet count decreased, incidence","all patients N = 57, any grade",28.1%
same,"TRAE: white blood cell count decreased, incidence","all patients N = 57, any grade",43.9%
same,"TEAEs resulting in death, patients","all patients N = 57, neither related to senaparib",3.5%
same,Patients with most frequent (hematologic) TRAEs of grade ≤3,in vivo,> 90%
same,Pneumonitis and venous thromboembolic events,present study,neither of which were observed
same,Secondary hematologic tumors (AML/MDS),present study population,no cases
